Columns and labels:
Assay type in all cases: functional
[1] = Cytotoxicity against human SW620 cells assessed as cell growth at 10 uM after 2 days by SRB assay relative to control; conditions: SW-620, 48 h, read-out: Activity
[2] = Cytotoxicity against human IGROV1 cells assessed as cell growth at 10 uM after 2 days by SRB assay relative to control; conditions: IGROV-1, 48 h, read-out: Activity
[3] = Cytotoxicity against human HT-29 cells assessed as cell growth at 10 uM after 2 days by SRB assay relative to control; conditions: HT-29, 48 h, read-out: Activity
[4] = Cytotoxicity against human MDA-MB-231 cells assessed as cell growth at 10 uM after 2 days by SRB assay relative to control; conditions: MDA-MB-231, 48 h, read-out: Activity
[5] = Cytotoxicity against human HOP62 cells assessed as cell growth at 10 uM after 2 days by SRB assay relative to control; conditions: HOP-62, 48 h, read-out: Activity
[6] = Cytotoxicity against human MALME-3M cells assessed as cell growth at 10 uM after 2 days by SRB assay relative to control; conditions: 48 h, read-out: Activity
[7] = Cytotoxicity against human TK10 cells assessed as cell growth at 10 uM after 2 days by SRB assay relative to control; conditions: TK-10, 48 h, read-out: Activity
[8] = Cytotoxicity against human NCI-H322M cells assessed as cell growth at 10 uM after 2 days by SRB assay relative to control; conditions: 48 h, read-out: Activity
[9] = Cytotoxicity against human U251 cells assessed as cell growth at 10 uM after 2 days by SRB assay relative to control; conditions: U-251, 48 h, read-out: Activity
[10] = Cytotoxicity against human SN12C cells assessed as cell growth at 10 uM after 2 days by SRB assay relative to control; conditions: 48 h, read-out: Activity
[11] = Cytotoxicity against human HCT116 cells assessed as cell growth at 10 uM after 2 days by SRB assay relative to control; conditions: HCT-116, 48 h, read-out: Activity
[12] = Cytotoxicity against human Hs 578T cells assessed as cell growth at 10 uM after 2 days by SRB assay relative to control; conditions: 48 h, read-out: Activity
[13] = Cytotoxicity against human CCRF-CEM cells assessed as cell growth at 10 uM after 2 days by SRB assay relative to control; conditions: 48 h, read-out: Activity
[14] = Cytotoxicity against human SF295 cells assessed as cell growth at 10 uM after 2 days by SRB assay relative to control; conditions: SF-295, 48 h, read-out: Activity
[15] = Cytotoxicity against human UO31 cells assessed as cell growth at 10 uM after 2 days by SRB assay relative to control; conditions: UO-31, 48 h, read-out: Activity
[16] = Cytotoxicity against human UACC257 cells assessed as cell growth at 10 uM after 2 days by SRB assay relative to control; conditions: UACC-257, 48 h, read-out: Activity
[17] = Cytotoxicity against human SF268 cells assessed as cell growth at 10 uM after 2 days by SRB assay relative to control; conditions: SF-268, 48 h, read-out: Activity
[18] = Cytotoxicity against human HL-60(TB) cells assessed as cell growth at 10 uM after 2 days by SRB assay relative to control; conditions: HL-60, 48 h, read-out: Activity
[19] = Cytotoxicity against human KM12 cells assessed as cell growth at 10 uM after 2 days by SRB assay relative to control; conditions: KM12, 48 h, read-out: Activity
[20] = Cytotoxicity against human SF539 cells assessed as cell growth at 10 uM after 2 days by SRB assay relative to control; conditions: SF-539, 48 h, read-out: Activity
[21] = Cytotoxicity against human MDA-MB-435 cells assessed as cell growth at 10 uM after 2 days by SRB assay relative to control; conditions: MDA-MB-435, 48 h, read-out: Activity
[22] = Cytotoxicity against human HCT15 cells assessed as cell growth at 10 uM after 2 days by SRB assay relative to control; conditions: HCT-15, 48 h, read-out: Activity
[23] = Cytotoxicity against human NCI-H226 cells assessed as cell growth at 10 uM after 2 days by SRB assay relative to control; conditions: NCI-H226, 48 h, read-out: Activity
[24] = Cytotoxicity against human NCI/ADR-RES cells assessed as cell growth at 10 uM after 2 days by SRB assay relative to control; conditions: 48 h, read-out: Activity
[25] = Cytotoxicity against human K562 cells assessed as cell growth at 10 uM after 2 days by SRB assay relative to control; conditions: K562, 48 h, read-out: Activity
[26] = Cytotoxicity against human SNB75 cells assessed as cell growth at 10 uM after 2 days by SRB assay relative to control; conditions: SNB-75, 48 h, read-out: Activity
[27] = Cytotoxicity against human A549 cells assessed as cell growth at 10 uM after 2 days by SRB assay relative to control; conditions: A549, 48 h, read-out: Activity
[28] = Cytotoxicity against human OVCAR5 cells assessed as cell growth at 10 uM after 2 days by SRB assay relative to control; conditions: OVCAR-5, 48 h, read-out: Activity
[29] = Cytotoxicity against human NCI-H23 cells assessed as cell growth at 10 uM after 2 days by SRB assay relative to control; conditions: NCI-H23, 48 h, read-out: Activity
[30] = Cytotoxicity against human HOP92 cells assessed as cell growth at 10 uM after 2 days by SRB assay relative to control; conditions: HOP-92, 48 h, read-out: Activity
[31] = Cytotoxicity against human COLO205 cells assessed as cell growth at 10 uM after 2 days by SRB assay relative to control; conditions: COLO 205, 48 h, read-out: Activity
[32] = Cytotoxicity against human UACC62 cells assessed as cell growth at 10 uM after 2 days by SRB assay relative to control; conditions: UACC-62, 48 h, read-out: Activity
[33] = Cytotoxicity against human LOXIMVI cells assessed as cell growth at 10 uM after 2 days by SRB assay relative to control; conditions: LOX IMVI, 48 h, read-out: Activity
[34] = Cytotoxicity against human SKOV3 cells assessed as cell growth at 10 uM after 2 days by SRB assay relative to control; conditions: SK-OV-3, 48 h, read-out: Activity
[35] = Cytotoxicity against human NCI-H460 cells assessed as cell growth at 10 uM after 2 days by SRB assay relative to control; conditions: NCI-H460, 48 h, read-out: Activity
[36] = Cytotoxicity against human SNB19 cells assessed as cell growth at 10 uM after 2 days by SRB assay relative to control; conditions: SNB-19, 48 h, read-out: Activity
[37] = Cytotoxicity against human SK-MEL-5 cells assessed as cell growth at 10 uM after 2 days by SRB assay relative to control; conditions: SK-MEL-5, 48 h, read-out: Activity
[38] = Cytotoxicity against human ACHN cells assessed as cell growth at 10 uM after 2 days by SRB assay relative to control; conditions: 48 h, read-out: Activity

SMILES | growth at 10 µM [1] [%] | growth at 10 µM [2] [%] | growth at 10 µM [3] [%] | growth at 10 µM [4] [%] | growth at 10 µM [5] [%] | growth at 10 µM [6] [%] | growth at 10 µM [7] [%] | growth at 10 µM [8] [%] | growth at 10 µM [9] [%] | growth at 10 µM [10] [%] | growth at 10 µM [11] [%] | growth at 10 µM [12] [%] | growth at 10 µM [13] [%] | growth at 10 µM [14] [%] | growth at 10 µM [15] [%] | growth at 10 µM [16] [%] | growth at 10 µM [17] [%] | growth at 10 µM [18] [%] | growth at 10 µM [19] [%] | growth at 10 µM [20] [%] | further results
COc1c(N[C@H]2C=C[C@@H](CO)C2)c(=O)c1=O | 105 | 93 | 113 | 110 | 96 | 109 | 105 | 108 | 103 | 112 | 95.7 | 114 | 108 | 118 | 88.3 | 89 | 112 | 96.4 | 87.7 | 101 | growth at 10 µM [21]: 118%; growth at 10 µM [22]: 111%; growth at 10 µM [23]: 105%; growth at 10 µM [24]: 107%; growth at 10 µM [25]: 111%; growth at 10 µM [26]: 107%; growth at 10 µM [27]: 97.8%; growth at 10 µM [28]: 100%; growth at 10 µM [29]: 108%; growth at 10 µM [30]: 111%; growth at 10 µM [31]: 141%; growth at 10 µM [32]: 101%; growth at 10 µM [33]: 97.8%; growth at 10 µM [34]: 110%; growth at 10 µM [35]: 105%; growth at 10 µM [36]: 106%; growth at 10 µM [37]: 103%; growth at 10 µM [38]: 104%
O=c1c(O)c(N[C@H]2C=C[C@@H](CO)C2)c1=O | 112 | 111 | 105 | 150 | 101 | 115 | 132 | 120 | 112 | 120 | 108 | 146 | 116 | 73.5 | 103 | 100 | 117 | 100 | 116 | 114 | growth at 10 µM [21]: 120%; growth at 10 µM [22]: 134%; growth at 10 µM [23]: 157%; growth at 10 µM [24]: 116%; growth at 10 µM [25]: 104%; growth at 10 µM [26]: 103%; growth at 10 µM [27]: 108%; growth at 10 µM [28]: 108%; growth at 10 µM [29]: 107%; growth at 10 µM [30]: 121%; growth at 10 µM [31]: 134%; growth at 10 µM [32]: 118%; growth at 10 µM [33]: 117%; growth at 10 µM [34]: 109%; growth at 10 µM [35]: 114%; growth at 10 µM [36]: 105%; growth at 10 µM [37]: 106%; growth at 10 µM [38]: 108%
Nc1c(N[C@H]2C=C[C@@H](CO)C2)c(=O)c1=O | 105 | 96.2 | 110 | 113 | 96.4 | 100 | 115 | 106 | 103 | 105 | 108 | 129 | 89.3 | 128 | 84.6 | 97.7 | 165 | 96.7 | 122 | 98.3 | growth at 10 µM [21]: 114%; growth at 10 µM [22]: 103%; growth at 10 µM [23]: 107%; growth at 10 µM [24]: 108%; growth at 10 µM [25]: 99.6%; growth at 10 µM [26]: 111%; growth at 10 µM [27]: 97.9%; growth at 10 µM [28]: 106%; growth at 10 µM [29]: 111%; growth at 10 µM [30]: 104%; growth at 10 µM [31]: 121%; growth at 10 µM [32]: 98.3%; growth at 10 µM [33]: 96.4%; growth at 10 µM [34]: 112%; growth at 10 µM [35]: 104%; growth at 10 µM [36]: 110%; growth at 10 µM [37]: 104%; growth at 10 µM [38]: 103%

Reference: ChEMBL document CHEMBL3871297, “Squarate-based carbocyclic nucleosides: Syntheses, computational analyses and anticancer/antiviral evaluation” (2017)
